Experimental data reported in patent publication US20230167467A1, “METHODS AND COMPOSITIONS FOR THE PRODUCTION OF ISOBUTENE” (University of Alaska Anchorage, priority 2020, published 2023).

Test system: Engineered strains of E. coli
Type: cell-based
[1] = after solvent exposure, vs positive control

Q: Which results are given for `C1=CCCCC1` [cyclohexene]?
A: expression of acid resistance genes (gad, adi families): downregulated; expression of chaperone proteins groLS, spy, and dnaJK: highly upregulated; expression of dihydroxyacetone kinase genes dhaKLM: upregulated; expression of galactitol metabolism genes gatABD: upregulated; expression of heat shock proteins and chaperones hslJORUV: increased; expression of ibpAB and clpAB (protein protection and repair): increased; expression of marABC (multiple antibiotic resistance): upregulated; expression of nitrate reductase genes narGHJKP: upregulated; expression of phage shock genes pspABCDE: highly upregulated; change in expression of gene adiA [1]: −1.87 ± 0.86; change in expression of gene adiC [1]: −1.64 ± 1.02; change in expression of gene adiY [1]: −2.84 ± 0.66; change in expression of gene bhsA [1]: 4.18 ± 0.60; change in expression of gene bssR [1]: 2.27 ± 0.44; change in expression of gene bssS [1]: 6.69 ± 0.84; change in expression of gene clpA [1]: 4.12 ± 0.63; change in expression of gene clpB [1]: 6.17 ± 0.69; change in expression of gene clpP [1]: 2.72 ± .59; change in expression of gene coaA [1]: −1.36 ± 0.88; change in expression of gene coaD [1]: 1.34 ± 0.90; change in expression of gene cspA [1]: −6.07 ± 0.58; change in expression of gene cspB [1]: −4.10 ± 1.31; change in expression of gene cspC [1]: −3.65 ± 0.94; change in expression of gene cspD [1]: 2.88 ± 0.57; change in expression of gene cspE [1]: −0.06 ± 0.63; change in expression of gene cspF [1]: −2.37 ± 1.04; change in expression of gene dhaK [1]: 3.72 ± 0.59; change in expression of gene dhaL [1]: 2.40 ± 0.62; change in expression of gene dnaJ [1]: 6.64 ± 0.69; change in expression of gene dnaK [1]: 5.96 ± 0.66; change in expression of gene fabA [1]: −1.13 ± 0.76; change in expression of gene fabB [1]: 1.01 ± 0.66; change in expression of gene fabD [1]: −1.64 ± 0.53; change in expression of gene flgA [1]: −0.73 ± 1.53; change in expression of gene flgB [1]: −3.31 ± 1.51; change in expression of gene flgC [1]: −4.46 ± 1.94; change in expression of gene flgD [1]: −3.72 ± 1.87; change in expression of gene flgE [1]: −2.82 ± 1.18; change in expression of gene flgF [1]: −2.88 ± 1.58; change in expression of gene flgG [1]: −2.77 ± 1.48; change in expression of gene flgH [1]: −2.14 ± 1.71; change in expression of gene gabD [1]: 0.11 ± 1.32; change in expression of gene gabP [1]: 1.19 ± 1.28; change in expression of gene gabT [1]: 0.31 ± 1.28; change in expression of gene gadA [1]: −0.52 ± 0.68; change in expression of gene gadB [1]: 0.17 ± 0.80; change in expression of gene gadC [1]: 1.28 ± 0.80; change in expression of gene gadE [1]: −3.51 ± 0.61; change in expression of gene gadW [1]: −2.17 ± 0.95; change in expression of gene gadX [1]: −3.69 ± 0.57; change in expression of gene gadY [1]: −4.01 ± 0.80; change in expression of gene glpA [1]: 7.06 ± 0.87; change in expression of gene glpB [1]: 4.64 ± 0.63; change in expression of gene glpC [1]: 5.02 ± 0.80; change in expression of gene groL [1]: 4.57 ± 0.57; change in expression of gene groS [1]: 4.63 ± 0.50; change in expression of gene hchA [1]: 2.06 ± 0.60; change in expression of gene hslJ [1]: 1.41 ± 0.66; change in expression of gene hslO [1]: 4.56 ± 0.64; change in expression of gene hslR [1]: 4.80 ± 0.65; change in expression of gene hslU [1]: 4.95 ± 0.55; change in expression of gene hslV [1]: 4.81 ± 0.61; change in expression of gene ibpA [1]: 9.90 ± 1.21; change in expression of gene ibpB [1]: 10.95 ± 1.50; change in expression of gene lhgO [1]: 1.38 ± 1.64; change in expression of gene lipA [1]: 0.42 ± 0.73; change in expression of gene lipB [1]: 0.61 ± 1.03; change in expression of gene narG [1]: 4.96 ± 0.65; change in expression of gene narH [1]: 4.45 ± 0.61; change in expression of gene narI [1]: 3.11 ± 0.92; change in expression of gene narJ [1]: 4.11 ± 0.68; change in expression of gene narK [1]: 3.31 ± 0.84; change in expression of gene potA [1]: −2.79 ± 0.81; change in expression of gene potB [1]: −1.05 ± 1.29; change in expression of gene potC [1]: −0.55 ± 1.19; change in expression of gene pspA [1]: 10.50 ± 0.55; change in expression of gene pspB [1]: 9.33 ± 0.68; change in expression of gene rpoA [1]: 0.17 ± 0.44; change in expression of gene rpoB [1]: 0.79 ± 0.40; change in expression of gene rpoC [1]: 1.15 ± 0.39; change in expression of gene rpoD [1]: 4.75 ± 0.70; change in expression of gene rpoE [1]: 1.44 ± 0.62; change in expression of gene rpoH [1]: 1.79 ± 0.52; change in expression of gene rpoN [1]: −1.54 ± 0.49; change in expression of gene rpoS [1]: 0.22 ± 0.47; change in expression of gene rpoZ [1]: −0.02 ± 0.53; change in expression of gene spy [1]: 3.95 ± 0.87; change in expression of gene tatA [1]: −1.95 ± 0.52; change in expression of gene tatB [1]: −1.59 ± 0.59; change in expression of gene tatC [1]: −1.25 ± 1.09; change in expression of gene tatD [1]: −1.56 ± 1.13; change in expression of gene tatE [1]: −0.97 ± 0.64; number of genes with significant changes in expression (vs control, Bon Ferroni corrected p-value<0.05): 530 genes
